Consider one compound from paper PMC10877733, “Discovery and Characterization of VU0542270, the First Selective Inhibitor of Vascular Kir6.1/SUR2B KATP Channels” (Molecular Pharmacology, 2024).

Each structure is given as a SMILES string.

Common to all, as to type: in vitro ADME
Data set [1] is described as follows: Plasma binding by equilibrium dialysis, human. The following applies: equilibrium dialysis 6 hours 37°C, read-out: Fu, plasma (human). Here is the method:
(§1) Determination of VU0542270 fraction unbound (fu) in plasma from mouse, rat, and human was conducted in vitro via equilibrium dialysis using high-throughput dialysis (HTD) membrane plates. Dialysis membranes (four paired strips per HTD assay) were hydrated as described by the manufacturer and inserted into the HTD plate, which was assembled and prepared for sample addition by the dispensing of blank buffer [Delbecco’s phosphate buffered saline (DPBS), 100 µL/well] into the “top half” of each membrane-split well. VU0542270 was diluted into plasma from each species (5 µM final concentration), which was aliquoted in triplicate to the “bottom half” of the prepared HTD plate wells. The HTD plate was sealed and incubated for 6 hours at 37°C. Following incubation, each well (both top and bottom halves) was transferred (20 µL) to the corresponding well of a 96-shallow-well (V-bottom) plate. […]
(§2) fu was calculated as (analyte to IS mass spectrometry (MS) peak area ratio from Trans-buffer side)/(analyte to IS MS peak area ratio from Cis-plasma side). Mean values for each species were calculated from three replicates.

Data set [2] in a line: Intrinsic clearance in liver microsomes, mouse. The procedure: The in vitro intrinsic clearance (CLint) of VU0542270 was investigated in commercially obtained hepatic microsomes from rat, mouse, and human donors using the substrate depletion (i.e., loss-of-parent versus time, or t1/2 method) approach with analyte detection via LC-MS/MS. For each species, mean per cent parent remaining values at each time point were calculated from replicates raw data (analyte:IS peak area ratios) and used to determine in vitro t1/2 and CLint.
Experiments were carried out using a robot-assisted liquid handling system (TECAN model Evo 200). VU0542270 was incubated (1 µM final concentration) in buffer (100 mM potassium phosphate, pH 7.4, with 3 mM MgCl2) containing hepatic microsomes (0.5 mg/mL final concentration) from multiple species, discretely, at 37°C under constant orbital shaking. After 5 minutes (preincubation), reactions were initiated by the addition of NADPH (1 mM final concentration). At selected time intervals (0, 3, 7, 15, 25, and 45 minutes) post addition of NADPH, aliquots (50 µL) were taken and placed into a 96-shallow-well plate containing ice-cold acetonitrile (150 µL) with carbamazepine (IS, 50 nM). The plates were then centrifuged (3000 rcf at 4°C) for 10 minutes. […]
Predicted hepatic clearance (CLhep) was calculated using the following equation: [drawing 4] […]
In general terms: Liver microsomes are vesicles of endoplasmic reticulum, rich in cytochrome P450 enzymes.

Data set [3] can be described thus: Plasma binding by equilibrium dialysis, rat. The conditions noted are these: equilibrium dialysis 6 hours 37°C, read-out: Fu, plasma (rat). Here is the method: as §1, §2
Background: Equilibrium dialysis compares concentrations on both sides of a semipermeable membrane.

Data set [4] in a line: Brain homogenate binding by equilibrium dialysis, rat. The following applies: read-out: Fu, brain (rat). The procedure:
Determination of VU0542270 fu in […] from mouse and rat was conducted using the same methodology and procedure as described for plasma protein binding assay with the following modifications: 1) a final compound concentration of 1 μM was used, and 2) naïve rat brains were homogenized in DPBS (1:3 composition of brain:DPBS, w/w) using a Mini-Bead Beater machine to obtain brain homogenate.
The diluted fraction unbound (fu2) in brain was calculated as (analyte to IS MS peak area ratio from Trans-buffer side)/(analyte to IS MS peak area ratio from Cis-brain homogenate side). Undiluted fraction unbound for the brain was calculated using the following equation: [drawing 1]
Mean values for each species were calculated from three replicates.

Data set [5] in a line: Plasma binding by equilibrium dialysis, mouse. The following applies: equilibrium dialysis 6 hours 37°C, read-out: Fu, plasma (mouse). Here is the method:
as §1, §2

`Cc1nc(-c2cccs2)sc1CNC(=O)Nc1cccs1` [VU0542270]: the fraction unbound at 6 h, 5 µM in data set [1], in data set [3] and in data set [5] was 0.01 throughout. The “Predicted CLhep,u (mouse)” value in data set [2] (corrected to plasma unbound fraction) is 27 mL/min per kg. In addition, in data set [2] (from microsomal CLint), the “Predicted CLhep (mouse)” value is on record as 88 mL/min per kg. For the same compound, in data set [4], the fraction unbound at 6 h, 1 µM came to 0.02.
